Molecular target: human Kv7.2 (Homo sapiens (Human), UniProt O43526)
Test: SyncroPatch 384 electrophysiology, activation of Kv7.2 in CHO cells
Type: cell-based
Settings: for EC50: CHO cells stably expressing human Kv7.2, potassium current at -90 mV repolarizing step, in presence of zinc pyrithione; for Emax: CHO, Kv7.2 activation max %, relative to 30 μM ML-213 max activation
Experimental: The potency of Kv7 potentiators was determined using the SyncroPatch 384 (Nanion) high throughput electrophysiology platform.
CHO cells stably expressing either human Kv7.2, Kv7.4 or Kv7.5/7.3 under a constitutive CMV promoter were used for these studies. Cells were maintained in F12 Hams+1 mM L-glutamine (Hyclone) supplemented with 10% FBS (Sigma), 0.3×NEAA (Non-essential Gamino-acids) and 400 ug/ml G418 at 37° C. in 5% CO2. Cells were cultured in T-225 flasks (Nunc) for 2-3 days to reach 85-95% confluence prior to electrophysiological recording.
Earle's balanced salt solution (in mM): 135 NaCl, 5.4 KCl, 5 Glucose, 2 CaCl2, 1 MgCl2, 5 HEPES, pH 7.4. Seal enhancer solution (in mM): 90 NaCl, 3 KCl, 35 CaCl2, 10 MgCl2, 10 HEPES, pH 7.4. Extracellular recording solution (in mM): 71 NaCl, 70 NMDG, 13 KCl, 5 Glucose, 2 CaCl2, 1 MgCl2, 10 HEPES, pH 7.4. Intracellular recording solution (in mM): 130 KF, 20 KCl, 4 EGTA, 10 HEPES, 2 EDTA, 0.01 Escin, pH 7.2.
Cells were harvested for electrophysiological recording upon reaching appropriate confluence. Cells were first washed in DPBS (Hyclone, Cat #SH30028.03) and then 2 ml of Accutase (MP Biomedicals #1000449) was added at 28° C. until ˜90% of cells were suspended. F12 HAM's media+1 mM L-glutamine (Hyclone, SH30026.02) was then added to the flask to dilute the accutase. Cells were then triturated until a single cell suspension was achieved, a cell count was performed, and cells were centrifuged for 2 min. at 1,000 rpm. Media was then aspirated, and cells were resuspended in Earle's balanced salt solution to a concentration of 0.75×10^6 cells/ml and allowed to recover for 25 min at 10° C.
At the beginning of each assay, 20 μl of cell suspension was dispensed into each well of a multi-hole 384-well SyncroPatch chip by the onboard pipettor. Cell sealing was initiated, and seal enhancer solution was added to facilitate seal formation. Upon completion of sealing, cells were washed 3 times with extracellular recording solution and the assay voltage protocol was started. Human Kv7.2, Kv7.4 or Kv7.5/7.3 channels were evaluated using a voltage protocol in which cells were voltage-clamped at a holding potential of −60 mV. Potassium currents were continuously activated with a series of three voltage steps to −30 mV for 3 seconds, 40 mV for 1 second and −90 mV for 4 seconds with 12 seconds between successive voltage sweeps. Potassium currents were measured from the −90 mV repolarizing step. Baseline current was assessed for 3.5 minutes prior to the addition of 5.6 μM zinc pyrithione (1 μM for Kv7.4). Kv7.2, Kv7.4 or Kv7.5/7.3 current in the presence of zinc pyrithione was acquired over five minutes to allow channels to reach steady state activity prior to addition of test agents. Channel activity was monitored for three minutes preceding the addition of 30 μM ML-213 (3 minutes) to achieve maximum activation. 150 mM TEA with 10 μM XE-991 was applied for 2 minutes to measure the leak current during maximum inhibition of Kv7.2, Kv7.4 or Kv7.5/7.3 channels.
Data were collected on the SyncroPatch platform using PatchControl software (Nanion) and processed and analyzed using DataControl Software (Nanion). Percent activation was calculated from potassium current as follows: The average current for the 5 sweeps in the presence of zinc pyrithione immediately preceding test agent addition was taken as the ‘control’ data. Likewise, the average potassium current in the presence of test agents 5 sweeps immediately preceding addition of 30 μM ML-213 was determined for ‘drug’ data. The average potassium current 5 sweeps immediately prior to addition of 150 mM TEA+10 μM XE-991 was determined for ‘max activation’ data while average currents from 5 sweeps immediately following addition of TEA was determined for ‘max inhibition’ data. Percent activation for each of the 384-wells of a sealchip was calculated as ((‘drug’−‘max inhibition’)/(‘max activation’−‘max inhibition’))*100 with Pipeline Pilot (Accelrys). […]

Structure (SMILES) | EC50 [nM] | Emax [%]
O=C(NCc1ccnc(-n2ccnc2)c1)NC1CC1C1CCCCC1 (stereo not drawn) [Example 11, 1-(2-cyclohexylcyclopropyl)-3-[(2-imidazol-1-ylpyridin-4-yl)methyl]urea] | 2140 | 52
O=C(NCc1ccnc(-n2cccn2)c1)N[C@@H]1C[C@H]1c1ccccc1 [Example 13, 1-[(1R,2S)-2-phenylcyclopropyl]-3-[(2-pyrazol-1-ylpyridin-4-yl)methyl]urea] | 1340 | 74
O=C(NCc1ccnc(OC2COC2)c1)N[C@@H]1C[C@H]1c1ccccc1 [Example 16] | 960 | 57
N#Cc1cccc(CNC(=O)N[C@@H]2C[C@H]2c2ccccc2)n1 [Example 18, 1-[(6-cyanopyridin-2-yl)methyl]-3-[(1R,2S)-2-phenylcyclopropyl]urea] | 3020 | 62
O=C(NCc1ccnc(Cl)c1)N[C@@H]1C[C@H]1c1ccccc1 [Example 19, 1-[(2-chloropyridin-4-yl)methyl]-3-[(1R,2S)-2-phenylcyclopropyl]urea] | 6830 | 60
O=C(NCc1ccnc(OC2CCOCC2)c1)N[C@@H]1C[C@H]1c1ccccc1 [Example 20, 1-[[2-(oxan-4-yloxy)pyridin-4-yl]methyl]-3-[(1R,2S)-2-phenylcyclopropyl]urea] | 5930 | 58
O=C(NCc1ccnc(OC2CCC2)c1)N[C@@H]1C[C@H]1c1ccccc1 [Example 25, 1-[(2-cyclobutyloxypyridin-4-yl)methyl]-3-[(1R,2S)-2-phenylcyclopropyl]urea] | 1050 | 60
O=C(NCc1ccnc(-n2ccnc2)c1)N[C@@H]1C[C@H]1c1ccccc1 [Example 27, 1-[(2-imidazol-1-ylpyridin-4-yl)methyl]-3-[(1R,2S)-2-phenylcyclopropyl]urea] | 2840 | 45
COc1cc([C@H](C)NC(=O)N[C@@H]2C[C@H]2c2ccccc2)ccn1 [Example 29, 1-[(1S)-1-(2-methoxypyridin-4-yl)ethyl]-3-[(1R,2S)-2-phenylcyclopropyl]urea] | 520 | 47
O=C(NCc1ccnc(-n2cnc(C(F)(F)F)c2)c1)N[C@@H]1C[C@H]1c1ccccc1 [Example 31, 1-[(1R,2S)-2-phenylcyclopropyl]-3-[[2-[4-(trifluoromethyl)imidazol-1-yl]pyridin-4-yl]methyl]urea] | 500 | 44
O=C(NCc1ccnc(C2COC2)c1)N[C@@H]1C[C@H]1c1ccccc1 [Example 32] | 3020 | 40
C[C@H](NC(=O)N[C@@H]1C[C@H]1c1ccccc1)c1ccnc(-n2cnc(C(F)(F)F)c2)c1 [Example 33, 1-[(1R,2S)-2-phenylcyclopropyl]-3-[(1S)-1-[2-[4-(trifluoromethyl)imidazol-1-yl]pyridin-4-yl]ethyl]urea] | 310 | 40
O=C(NCc1ccnc(Oc2ccccc2)c1)N[C@@H]1C[C@H]1c1ccccc1 [Example 34, 1-[(2-phenoxypyridin-4-yl)methyl]-3-[(1R,2S)-2-phenylcyclopropyl]urea] | 4780 | 62
O=C(NCc1ccnc(OCF)c1)N[C@@H]1C[C@H]1c1ccccc1 [Example 37] | 910 | 74
O=C(NCc1ccnc(-n2ccc(C(F)(F)F)n2)c1)N[C@@H]1C[C@H]1c1ccccc1 [Example 39, 1-[(1R,2S)-2-phenylcyclopropyl]-3-[[2-[3-(trifluoromethyl)pyrazol-1-yl]pyridin-4-yl]methyl]urea] | 70 | 78
O=C(NCc1ccnc(OC2CCOCC2)c1)NC1CC1C1CCCCC1 (stereo not drawn) [Example 45, 1-(2-cyclohexylcyclopropyl)-3-[[2-(oxan-4-yloxy)pyridin-4-yl]methyl]urea] | 880 | 77

Now from value to molecule:

EC50 [nM] | Emax [%] | Structure (SMILES)
70 | 71 | O=C(NCc1ccnc(OCC(F)(F)F)c1)N[C@@H]1C[C@H]1c1ccccc1 [Example 14, 1-[(1R,2S)-2-phenylcyclopropyl]-3-[[2-(2,2,2-trifluoroethoxy)pyridin-4-yl]methyl]urea]
3200 | 72 | O=C(NCc1ccnc(C(F)F)c1)N[C@@H]1C[C@H]1c1ccccc1 [Example 21, 1-[[2-(difluoromethyl)pyridin-4-yl]methyl]-3-[(1R,2S)-2-phenylcyclopropyl]urea]
720 | 53 | O=C(NCc1ccnc(C(F)(F)F)c1)N[C@@H]1C[C@H]1c1ccccc1 [Example 22, 1-[(1R,2S)-2-phenylcyclopropyl]-3-[[2-(trifluoromethyl)pyridin-4-yl]methyl]urea]
1560 | 97 | CC(F)(F)c1cc(CNC(=O)N[C@@H]2C[C@H]2c2ccccc2)ccn1 [Example 26, 1-[[2-(1,1-difluoroethyl)pyridin-4-yl]methyl]-3-[(1R,2S)-2-phenylcyclopropyl]urea]
1360 | 62 | O=C(NCc1ccnc(OC(F)(F)F)c1)N[C@@H]1C[C@H]1c1ccccc1 [Example 28, 1-[(1R,2S)-2-phenylcyclopropyl]-3-[[2-(trifluoromethoxy)pyridin-4-yl]methyl]urea]
210 | 72 | C[C@H](NC(=O)N[C@@H]1C[C@H]1c1ccccc1)c1ccnc(OC(F)F)c1 [Example 30, 1-((S)-1-(2-(difluoromethoxy)pyridin-4-yl)ethyl)-3-((1R,2S)-2-phenylcyclopropyl)urea]
200 | 66 | O=C(NCc1ccnc(OCC(F)F)c1)N[C@@H]1C[C@H]1c1ccccc1 [Example 35, 1-[[2-(2,2-difluoroethoxy)pyridin-4-yl]methyl]-3-[(1R,2S)-2-phenylcyclopropyl]urea]
230 | 54 | O=C(NCc1ccnc(OC(F)F)c1)N[C@@H]1C[C@H]1C(F)(F)F [Example 41, 1-[[2-(difluoromethoxy)pyridin-4-yl]methyl]-3-[(1R,2R)-2-(trifluoromethyl)cyclopropyl]urea]
570 | 70 | O=C(NCc1ccnc(OCC(F)CF)c1)N[C@@H]1C[C@H]1c1ccccc1 (stereo partly drawn) [Example 48, 1-[[2-(2,3-difluoropropoxy)pyridin-4-yl]methyl]-3-[(1R,2S)-2-phenylcyclopropyl]urea]
3830 | 42 | O=C(NCc1ccnc(OC(F)F)n1)N[C@@H]1C[C@H]1C(F)(F)F [Example 49, 1-[[2-(difluoromethoxy)pyrimidin-4-yl]methyl]-3-[(1R,2R)-2-(trifluoromethyl)cyclopropyl]urea]
1000 | 43 | O=C(NCc1cc(OC(F)F)ncn1)N[C@H]1C[C@@H]1C(F)(F)F [Example 52, 1-[[6-(difluoromethoxy)pyrimidin-4-yl]methyl]-3-[(1S,2S)-2-(trifluoromethyl)cyclopropyl]urea]
